Experimental findings from DBAASP are described below.

Values after ≈ are worked out from the molar mass of the structure shown. Values joined by “and” are separate entries in the source; they are usually repeats but may differ in a detail not shown here. Identical values can stand only once.

Experiment in all cases: ≥ marks a high value that may be exact or a test limit, other limits are often not marked, values filed in µg/mL are converted to µM
In assay [1] the test system is Bacillus subtilis C971.
Assay [2] has as its system Corynebacterium xerosis C875.
Assay [3] relates to Enterococcus faecalis C625.
Assay [4] deals with Escherichia coli ATCC 25922.
Assay [5] deals with Escherichia coli DC2.
For assay [6], the system named is Escherichia coli UB1005.
The subject of assay [7] is Pseudomonas aeruginosa ATCC 27853.
The test system of assay [8] is Pseudomonas aeruginosa H187.
The test system of assay [9] is Pseudomonas aeruginosa H188.
Assay [10] has as its system Salmonella typhimurium C587.
Assay [11] has as its system Salmonella typhimurium C610.
For assay [12], the system named is Staphylococcus aureus ATCC 25923.
The test system of assay [13] is Staphylococcus aureus SAP 0017.
The subject of assay [14] is Staphylococcus epidermidis ATCC 12228.
Assay [15] deals with Staphylococcus epidermidis C621.
The subject of assay [16] is Staphylococcus aureus 930918-3.
Assay [17] relates to Staphylococcus aureus ATCC 33591.
Assay [18] deals with Bacillus subtilis ATCC 6051.
For assay [19], the system named is Escherichia coli NEB5alpha.
Assay [20] has as its system Escherichia coli.
Assay [21] deals with Salmonella enterica subsp. enterica serovar Enteritidis.
Assay [22] has as its system Salmonella sp.
For assay [23], the system named is Staphylococcus aureus ATCC 29213.
The subject of assay [24] is Staphylococcus aureus ATCC 43300.
Assay [25] concerns Yersinia enterocolitica.

The term MIC denotes the lowest concentration found to suppress growth. Regarding `CC[C@H](C)[C@H](NC(=O)[C@H](C)NC(=O)[C@H](CCCCN)NC(=O)[C@H](CC(C)C)NC(=O)[C@H](C)NC(=O)[C@@H](NC(=O)[C@H](Cc1cnc[nH]1)NC(=O)[C@H](CC(C)C)NC(=O)[C@@H](NC(=O)[C@@H](NC(=O)[C@H](CCCCN)NC(=O)[C@H](CO)NC(=O)[C@H](C)NC(=O)[C@H](CO)NC(=O)[C@H](CCCCN)NC(=O)[C@H](Cc1ccccc1)NC(=O)[C@@H](NC(=O)[C@H](CCCCN)NC(=O)[C@H](CC(C)C)NC(=O)[C@H](Cc1ccccc1)NC(=O)[C@H](CO)NC(=O)[C@H](CCCCN)NC(=O)[C@H](Cc1c[nH]c2ccccc12)NC(=O)[C@H](CCCCN)NC(C)=O)[C@@H](C)O)[C@@H](C)O)C(C)C)[C@@H](C)O)C(=O)N[C@@H](CO)C(=O)N[C@@H](CO)C(N)=O` [KWKSFLKTFKSASKTVLHTALKAISS], the MIC in assay [1] came to 0.86 µM (≈ 2.54 µg/mL); in assay [2] it was 0.55 µM (≈ 1.62 µg/mL); in [3] it was 17.5 µM (≈ 51.5 µg/mL); in [4], 8 µM (≈ 23.6 µg/mL); in [5] it was 0.86 µM (≈ 2.54 µg/mL); in [6], 0.86 µM (≈ 2.54 µg/mL). In addition, the MIC was 8 µM (≈ 23.6 µg/mL) in assay [7]; 2.2 µM (≈ 6.49 µg/mL) in assay [8]; 3.47 µM (≈ 10.2 µg/mL) in assay [9]; 2.2 µM (≈ 6.49 µg/mL) in assay [10]; 0.688 µM (≈ 2.03 µg/mL) in assay [11]; 5.5 µM and 8 µM in [12]. For the same compound, the MIC in assay [13] was determined as 4.37 µM (≈ 12.9 µg/mL); in assay [14], 4 µM (≈ 11.8 µg/mL); in assay [15], 1.38 µM (≈ 4.06 µg/mL).
Take `CC[C@H](C)[C@H](NC(=O)[C@H](C)NC(=O)[C@H](CCCCN)NC(=O)[C@H](CC(C)C)NC(=O)[C@H](C)NC(=O)[C@@H](NC(=O)[C@H](Cc1cnc[nH]1)NC(=O)[C@H](CC(C)C)NC(=O)[C@@H](NC(=O)[C@@H](NC(=O)[C@H](CCCCN)NC(=O)[C@@H](NC(=O)[C@H](C)NC(=O)[C@H](C)NC(=O)[C@H](CCCCN)NC(=O)[C@H](Cc1ccccc1)NC(=O)[C@@H](NC(=O)[C@H](CCCCN)NC(=O)[C@H](CC(C)C)NC(=O)[C@H](Cc1ccccc1)NC(=O)[C@H](CO)NC(=O)[C@H](CCCCN)NC(=O)[C@H](Cc1c[nH]c2ccccc12)NC(=O)[C@H](CCCCN)NC(C)=O)[C@@H](C)O)C(C)C)[C@@H](C)O)C(C)C)[C@@H](C)O)C(=O)N[C@@H](CO)C(=O)N[C@@H](CO)C(N)=O` [KWKSFLKTFKAAVKTVLHTALKAISS]: the MIC in assay [1] came to 0.861 µM (≈ 2.54 µg/mL); in assay [2], 0.689 µM (≈ 2.03 µg/mL); in assay [3] it was 6.95 µM (≈ 20.5 µg/mL); in assay [5], 1.38 µM (≈ 4.06 µg/mL); in [6] it was 2.2 µM (≈ 6.49 µg/mL); in assay [8], 3.48 µM (≈ 10.2 µg/mL). Moreover, the MIC in assay [9] came out at 5.51 µM (≈ 16.2 µg/mL); in assay [10] it was 6.95 µM (≈ 20.5 µg/mL); in assay [11], 1.38 µM (≈ 4.06 µg/mL); in assay [12] it was 5.51 µM (≈ 16.2 µg/mL); in [13], 4.37 µM (≈ 12.9 µg/mL); in assay [15], 1.38 µM (≈ 4.06 µg/mL).
`CC[C@H](C)[C@H](NC(=O)[C@H](CCCCN)NC(=O)[C@H](CCCCN)NC(=O)[C@H](CC(C)C)NC(=O)[C@H](CCCCN)NC(=O)[C@H](CCC(=O)O)NC(=O)[C@H](CCCCN)NC(=O)[C@@H](NC(=O)[C@@H](N)CCCCN)[C@@H](C)CC)C(=O)NCC(=O)N[C@@H](CCC(N)=O)C(=O)N[C@@H](CCCCN)C(=O)N[C@H](C(=O)N[C@@H](CCC(N)=O)C(=O)NCC(=O)N[C@@H](CC(C)C)C(=O)N[C@@H](CC(C)C)C(=O)O)[C@@H](C)CC` [KIKEKLKKIGQKIQGLL]: the MIC in assay [16] and in assay [17] was no less than 127 µM throughout.
For `CC[C@H](C)[C@H](NC(=O)[C@H](CC(N)=O)NC(=O)[C@H](CCC(N)=O)NC(=O)[C@@H](N)Cc1cnc[nH]1)C(=O)NCC(=O)N[C@@H](CO)C(=O)N[C@@H](CO)C(=O)N[C@@H](CO)C(=O)N[C@@H](CO)C(=O)N1CCC[C@H]1C(=O)N[C@@H](CC(=O)O)C(=O)N[C@H](C(=O)N[C@@H](Cc1ccc(O)cc1)C(=O)O)[C@@H](C)CC` [HQNIGSSSSPDIY], the MIC in assay [18] and in assay [19] was no less than 1000 µM throughout.
Take `CC[C@H](C)[C@H](NC(=O)[C@H](CCC(N)=O)NC(=O)[C@@H](N)CCCN=C(N)N)C(=O)N[C@@H](CCCN=C(N)N)C(=O)N[C@@H](Cc1c[nH]c2ccccc12)C(=O)N[C@@H](CCC(N)=O)C(=O)N[C@@H](CCCN=C(N)N)C(N)=O` [RQIRWQR]: the MIC in [4] was greater than 50 µM; in [20] it was greater than 50 µM; in assay [7] it was greater than 50 µM; in assay [21], no less than 50 µM; in [22], no less than 50 µM; in assay [23], greater than 50 µM. For the same compound, the MIC is greater than 50 µM in assay [24] and no less than 50 µM in assay [25].
